The results in this text go back to ChEMBL document CHEMBL4507319 (2021).

Molecules are shown by their SMILES. Activity calls are given as the source filed them. The rule behind the calls is not given here. A value given as a limit tells only on which side of the number the result lay.

Experiment [1] concerns the target 5'-AMP-activated protein kinase catalytic subunit alpha-1 (Homo sapiens, UniProt Q13131). Briefly: Biochemical PRKAA1 assay with 10 µM ATP (Bayer in house).
The test system of experiment [2] is Tyrosine-protein kinase ABL1 (Homo sapiens), P00519 [H396P]. The settings on record: Compound concentration 1000.0 nM.
Experiment [3] has as its system Tyrosine-protein kinase ABL1 (Homo sapiens), P00519 [Q252H]. As to conditions: Compound concentration 1000.0 nM.
Experiment [4] deals with Calcium/calmodulin-dependent protein kinase type 1 (Homo sapiens) (UniProt Q14012). The settings on record: Compound concentration 1000.0 nM.
Experiment [5] concerns the target Cyclin-dependent kinase 11B (Homo sapiens) (UniProt P21127). The settings on record: Compound concentration 1000.0 nM.
Experiment [6] addresses Death-associated protein kinase 3 (Homo sapiens) (UniProt O43293). As to conditions: Compound concentration 1000.0 nM.
Experiment [7] has as its target Epidermal growth factor receptor (Homo sapiens) (UniProt P00533). As to conditions: Compound concentration 1000.0 nM.
Experiment [8] concerns the target Ephrin type-A receptor 7 (Homo sapiens) (UniProt Q15375). The settings on record: Compound concentration 1000.0 nM.
Experiment [9] deals with Fibroblast growth factor receptor 4 (Homo sapiens) (UniProt P22455). As to conditions: Compound concentration 1000.0 nM.
Experiment [10] has as its target Tyrosine-protein kinase Fyn (Homo sapiens) (UniProt P06241). The settings on record: Compound concentration 1000.0 nM.
The target in experiment [11] is Glycogen synthase kinase-3 beta (Homo sapiens) (UniProt P49841). The settings on record: Compound concentration 1000.0 nM.
The target of experiment [12] is Hormonally up-regulated neu tumor-associated kinase (Homo sapiens) (UniProt P57058). As to conditions: Compound concentration 1000.0 nM.
In experiment [13] the test system is Mast/stem cell growth factor receptor Kit (Homo sapiens), P10721 [V559D,T670I]. As to conditions: Compound concentration 1000.0 nM.
Sequence of Mast/stem cell growth factor receptor Kit (Homo sapiens), P10721 [V559D,T670I] (P10721 whole entry V559D/T670I): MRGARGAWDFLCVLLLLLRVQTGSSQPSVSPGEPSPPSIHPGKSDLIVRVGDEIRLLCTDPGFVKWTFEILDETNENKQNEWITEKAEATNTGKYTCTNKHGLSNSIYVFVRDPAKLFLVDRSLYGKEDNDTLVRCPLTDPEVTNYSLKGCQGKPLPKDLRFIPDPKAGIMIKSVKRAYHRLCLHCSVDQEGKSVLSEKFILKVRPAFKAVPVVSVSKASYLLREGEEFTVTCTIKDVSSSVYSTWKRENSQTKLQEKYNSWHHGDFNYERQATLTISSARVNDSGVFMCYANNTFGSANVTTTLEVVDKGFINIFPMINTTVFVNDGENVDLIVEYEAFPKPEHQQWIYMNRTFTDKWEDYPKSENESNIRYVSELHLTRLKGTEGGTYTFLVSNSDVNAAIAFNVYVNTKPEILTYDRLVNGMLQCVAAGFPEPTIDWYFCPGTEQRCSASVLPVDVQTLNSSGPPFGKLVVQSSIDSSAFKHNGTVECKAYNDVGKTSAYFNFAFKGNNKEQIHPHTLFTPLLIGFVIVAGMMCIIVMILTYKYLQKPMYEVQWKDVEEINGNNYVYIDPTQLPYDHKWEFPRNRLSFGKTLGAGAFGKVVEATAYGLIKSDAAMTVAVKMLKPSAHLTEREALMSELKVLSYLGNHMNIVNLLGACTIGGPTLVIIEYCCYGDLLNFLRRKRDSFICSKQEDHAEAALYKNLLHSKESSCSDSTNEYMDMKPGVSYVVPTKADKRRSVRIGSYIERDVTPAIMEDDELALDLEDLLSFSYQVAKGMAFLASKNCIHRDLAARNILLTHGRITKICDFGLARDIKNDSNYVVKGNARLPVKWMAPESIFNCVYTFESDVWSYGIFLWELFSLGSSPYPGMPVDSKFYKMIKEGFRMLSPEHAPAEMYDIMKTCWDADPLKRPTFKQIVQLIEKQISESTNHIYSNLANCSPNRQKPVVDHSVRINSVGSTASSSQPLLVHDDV
Experiment [14] has as its target Serine/threonine-protein kinase PAK 2 (Homo sapiens) (UniProt Q13177). As to conditions: Compound concentration 1000.0 nM.
For experiment [15], the target named is T1, Phosphatidylinositol 3-kinase C2 domain-containing subunit gamma (Homo sapiens) (UniProt O75747).
T1 sequence (whole entry): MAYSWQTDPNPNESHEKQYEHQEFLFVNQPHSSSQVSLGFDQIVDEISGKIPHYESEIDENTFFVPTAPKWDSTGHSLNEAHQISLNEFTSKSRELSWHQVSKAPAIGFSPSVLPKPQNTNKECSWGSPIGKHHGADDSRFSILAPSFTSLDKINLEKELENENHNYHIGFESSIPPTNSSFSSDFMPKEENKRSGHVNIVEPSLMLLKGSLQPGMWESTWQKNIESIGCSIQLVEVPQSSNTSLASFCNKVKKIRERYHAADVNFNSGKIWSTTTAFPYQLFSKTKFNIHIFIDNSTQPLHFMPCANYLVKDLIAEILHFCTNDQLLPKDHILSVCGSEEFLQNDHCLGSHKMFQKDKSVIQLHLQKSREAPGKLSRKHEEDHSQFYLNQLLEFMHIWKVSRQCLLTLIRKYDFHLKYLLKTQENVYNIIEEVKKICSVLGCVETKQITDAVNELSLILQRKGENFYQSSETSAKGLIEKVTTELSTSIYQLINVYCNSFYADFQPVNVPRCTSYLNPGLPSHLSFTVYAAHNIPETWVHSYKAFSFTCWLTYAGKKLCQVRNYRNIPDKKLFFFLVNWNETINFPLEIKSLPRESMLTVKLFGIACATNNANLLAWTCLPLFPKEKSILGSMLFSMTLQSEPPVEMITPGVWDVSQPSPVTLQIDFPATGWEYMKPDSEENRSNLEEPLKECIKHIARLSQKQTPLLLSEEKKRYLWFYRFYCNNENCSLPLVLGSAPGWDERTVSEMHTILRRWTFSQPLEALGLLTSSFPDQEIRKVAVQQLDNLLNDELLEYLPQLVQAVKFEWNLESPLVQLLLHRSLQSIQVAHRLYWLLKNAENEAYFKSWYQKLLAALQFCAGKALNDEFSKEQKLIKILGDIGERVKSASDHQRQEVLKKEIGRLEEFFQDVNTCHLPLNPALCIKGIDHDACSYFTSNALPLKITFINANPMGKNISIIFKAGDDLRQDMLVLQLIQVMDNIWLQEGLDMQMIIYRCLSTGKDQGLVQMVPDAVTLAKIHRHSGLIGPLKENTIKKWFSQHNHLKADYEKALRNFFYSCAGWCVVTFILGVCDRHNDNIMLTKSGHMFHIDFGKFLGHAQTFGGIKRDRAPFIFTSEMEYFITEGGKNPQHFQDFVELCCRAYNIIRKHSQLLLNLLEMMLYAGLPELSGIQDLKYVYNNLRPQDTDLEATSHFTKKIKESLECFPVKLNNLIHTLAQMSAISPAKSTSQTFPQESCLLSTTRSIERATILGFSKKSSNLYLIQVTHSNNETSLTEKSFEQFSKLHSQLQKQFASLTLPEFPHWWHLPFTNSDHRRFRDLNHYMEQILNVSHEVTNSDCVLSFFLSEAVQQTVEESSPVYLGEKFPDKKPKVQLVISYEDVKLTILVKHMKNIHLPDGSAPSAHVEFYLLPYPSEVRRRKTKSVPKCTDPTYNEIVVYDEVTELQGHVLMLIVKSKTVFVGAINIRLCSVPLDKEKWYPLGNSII
As to conditions: Compound concentration 1000.0 nM.

The subject of experiment [16] is Phosphatidylinositol 4,5-bisphosphate 3-kinase catalytic subunit alpha isoform (Homo sapiens), P42336 [E542K]. The settings on record: Compound concentration 1000.0 nM.
For experiment [17], the target named is Membrane-associated tyrosine- and threonine-specific cdc2-inhibitory kinase (Homo sapiens) (UniProt Q99640). The settings on record: Compound concentration 1000.0 nM.
Experiment [18] addresses Protein-tyrosine kinase 2-beta (Homo sapiens) (UniProt Q14289). The settings on record: Compound concentration 1000.0 nM.
The target in experiment [19] is Ribosomal protein S6 kinase alpha-4 (Homo sapiens) (UniProt O75676). As to conditions: Compound concentration 1000.0 nM.
Experiment [20] has as its target SRSF protein kinase 1 (Homo sapiens) (UniProt Q96SB4). As to conditions: Compound concentration 1000.0 nM.
Experiment [21] deals with Serine/threonine-protein kinase tousled-like 2 (Homo sapiens) (UniProt Q86UE8). As to conditions: Compound concentration 1000.0 nM.
Sequence of Serine/threonine-protein kinase tousled-like 2 (Homo sapiens) (Q86UE8 whole entry, looked up): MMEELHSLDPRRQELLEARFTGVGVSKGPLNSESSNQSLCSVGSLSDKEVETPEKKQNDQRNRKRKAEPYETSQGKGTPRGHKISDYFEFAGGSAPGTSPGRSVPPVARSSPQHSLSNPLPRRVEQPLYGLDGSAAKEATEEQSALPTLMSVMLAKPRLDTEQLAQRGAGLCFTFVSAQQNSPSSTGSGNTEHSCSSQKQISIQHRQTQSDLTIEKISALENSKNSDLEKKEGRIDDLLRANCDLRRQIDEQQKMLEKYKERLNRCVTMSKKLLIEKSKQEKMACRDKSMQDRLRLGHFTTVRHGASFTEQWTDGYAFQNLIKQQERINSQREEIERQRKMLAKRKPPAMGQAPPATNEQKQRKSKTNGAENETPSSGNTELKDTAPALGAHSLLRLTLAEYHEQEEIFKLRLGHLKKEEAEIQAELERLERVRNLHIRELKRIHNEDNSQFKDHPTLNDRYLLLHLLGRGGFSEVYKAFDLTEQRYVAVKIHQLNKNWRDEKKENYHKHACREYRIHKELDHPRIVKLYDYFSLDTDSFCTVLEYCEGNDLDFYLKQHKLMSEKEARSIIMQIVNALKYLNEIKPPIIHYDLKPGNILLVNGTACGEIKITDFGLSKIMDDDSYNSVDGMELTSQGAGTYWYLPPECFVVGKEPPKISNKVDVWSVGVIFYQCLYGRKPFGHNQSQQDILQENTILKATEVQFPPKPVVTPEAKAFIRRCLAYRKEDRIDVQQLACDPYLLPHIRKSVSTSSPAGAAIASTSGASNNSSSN
Experiment [22] addresses Serine/threonine-protein kinase WNK2 (Homo sapiens) (UniProt Q9Y3S1). As to conditions: Compound concentration 1000.0 nM.
Experiment [23] concerns the target Alpha-2A adrenergic receptor (Homo sapiens) (UniProt P08913). The settings on record: Compound concentration 10.0 uM.

Sequence of Death-associated protein kinase 3 (Homo sapiens) (O43293 whole entry, looked up): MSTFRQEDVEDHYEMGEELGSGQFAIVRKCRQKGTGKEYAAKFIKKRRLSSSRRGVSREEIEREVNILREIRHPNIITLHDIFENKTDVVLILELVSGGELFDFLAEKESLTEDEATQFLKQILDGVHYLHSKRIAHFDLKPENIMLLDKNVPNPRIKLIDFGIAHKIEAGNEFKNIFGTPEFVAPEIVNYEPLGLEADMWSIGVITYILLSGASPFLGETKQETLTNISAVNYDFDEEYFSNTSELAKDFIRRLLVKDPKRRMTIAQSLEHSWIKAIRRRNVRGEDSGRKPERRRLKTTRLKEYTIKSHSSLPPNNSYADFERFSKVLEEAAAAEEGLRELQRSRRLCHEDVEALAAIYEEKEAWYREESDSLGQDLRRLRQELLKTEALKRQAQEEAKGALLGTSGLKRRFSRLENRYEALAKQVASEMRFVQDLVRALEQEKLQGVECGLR
Sequence of SRSF protein kinase 1 (Homo sapiens) (Q96SB4 whole entry): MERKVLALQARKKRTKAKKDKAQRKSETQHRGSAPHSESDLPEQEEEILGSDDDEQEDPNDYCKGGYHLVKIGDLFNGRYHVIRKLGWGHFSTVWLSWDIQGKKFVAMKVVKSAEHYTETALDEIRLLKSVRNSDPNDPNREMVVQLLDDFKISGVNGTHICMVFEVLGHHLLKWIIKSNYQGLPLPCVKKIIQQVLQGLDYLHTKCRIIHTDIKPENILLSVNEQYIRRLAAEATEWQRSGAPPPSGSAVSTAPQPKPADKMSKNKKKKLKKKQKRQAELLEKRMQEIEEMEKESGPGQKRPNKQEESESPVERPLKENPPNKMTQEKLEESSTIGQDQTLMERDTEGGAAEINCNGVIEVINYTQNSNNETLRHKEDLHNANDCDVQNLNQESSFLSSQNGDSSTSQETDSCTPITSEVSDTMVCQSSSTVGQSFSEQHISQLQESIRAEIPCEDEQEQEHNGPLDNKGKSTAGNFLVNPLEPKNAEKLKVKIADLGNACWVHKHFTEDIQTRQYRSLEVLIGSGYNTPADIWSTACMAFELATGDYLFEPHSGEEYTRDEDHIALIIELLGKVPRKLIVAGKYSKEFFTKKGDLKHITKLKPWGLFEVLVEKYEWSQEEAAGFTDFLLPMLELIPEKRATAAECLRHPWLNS
Sequence of Serine/threonine-protein kinase PAK 2 (Homo sapiens) (Q13177 whole entry, the tested form may be a part): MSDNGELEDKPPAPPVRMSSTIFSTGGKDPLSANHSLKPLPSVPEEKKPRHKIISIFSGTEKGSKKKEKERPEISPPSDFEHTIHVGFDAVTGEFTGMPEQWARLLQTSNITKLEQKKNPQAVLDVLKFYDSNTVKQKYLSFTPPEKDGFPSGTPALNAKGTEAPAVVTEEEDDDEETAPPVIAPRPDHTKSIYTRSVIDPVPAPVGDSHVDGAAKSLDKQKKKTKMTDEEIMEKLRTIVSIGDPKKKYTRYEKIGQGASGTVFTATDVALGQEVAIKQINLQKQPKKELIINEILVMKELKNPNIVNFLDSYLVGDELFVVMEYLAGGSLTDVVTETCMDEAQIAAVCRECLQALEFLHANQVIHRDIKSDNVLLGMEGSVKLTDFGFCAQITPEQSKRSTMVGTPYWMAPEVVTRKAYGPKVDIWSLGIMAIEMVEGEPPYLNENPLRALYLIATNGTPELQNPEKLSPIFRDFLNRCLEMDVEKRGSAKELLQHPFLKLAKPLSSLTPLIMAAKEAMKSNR
Sequence of Tyrosine-protein kinase Fyn (Homo sapiens) (P06241 2-537 limits assumed): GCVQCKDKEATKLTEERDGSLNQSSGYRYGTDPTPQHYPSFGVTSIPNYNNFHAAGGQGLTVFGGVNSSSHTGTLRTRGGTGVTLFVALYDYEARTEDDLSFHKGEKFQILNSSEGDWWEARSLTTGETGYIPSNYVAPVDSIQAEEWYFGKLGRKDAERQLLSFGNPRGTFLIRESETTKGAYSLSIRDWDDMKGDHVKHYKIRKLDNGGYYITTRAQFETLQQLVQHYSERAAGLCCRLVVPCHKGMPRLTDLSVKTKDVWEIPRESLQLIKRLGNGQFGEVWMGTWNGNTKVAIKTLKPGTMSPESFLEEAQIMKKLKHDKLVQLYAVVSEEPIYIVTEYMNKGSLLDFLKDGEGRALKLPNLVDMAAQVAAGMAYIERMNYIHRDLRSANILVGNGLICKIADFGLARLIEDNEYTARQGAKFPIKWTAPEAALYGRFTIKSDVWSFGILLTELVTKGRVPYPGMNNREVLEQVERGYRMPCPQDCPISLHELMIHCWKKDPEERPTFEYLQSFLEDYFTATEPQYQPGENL
Sequence of Cyclin-dependent kinase 11B (Homo sapiens) (P21127 whole entry): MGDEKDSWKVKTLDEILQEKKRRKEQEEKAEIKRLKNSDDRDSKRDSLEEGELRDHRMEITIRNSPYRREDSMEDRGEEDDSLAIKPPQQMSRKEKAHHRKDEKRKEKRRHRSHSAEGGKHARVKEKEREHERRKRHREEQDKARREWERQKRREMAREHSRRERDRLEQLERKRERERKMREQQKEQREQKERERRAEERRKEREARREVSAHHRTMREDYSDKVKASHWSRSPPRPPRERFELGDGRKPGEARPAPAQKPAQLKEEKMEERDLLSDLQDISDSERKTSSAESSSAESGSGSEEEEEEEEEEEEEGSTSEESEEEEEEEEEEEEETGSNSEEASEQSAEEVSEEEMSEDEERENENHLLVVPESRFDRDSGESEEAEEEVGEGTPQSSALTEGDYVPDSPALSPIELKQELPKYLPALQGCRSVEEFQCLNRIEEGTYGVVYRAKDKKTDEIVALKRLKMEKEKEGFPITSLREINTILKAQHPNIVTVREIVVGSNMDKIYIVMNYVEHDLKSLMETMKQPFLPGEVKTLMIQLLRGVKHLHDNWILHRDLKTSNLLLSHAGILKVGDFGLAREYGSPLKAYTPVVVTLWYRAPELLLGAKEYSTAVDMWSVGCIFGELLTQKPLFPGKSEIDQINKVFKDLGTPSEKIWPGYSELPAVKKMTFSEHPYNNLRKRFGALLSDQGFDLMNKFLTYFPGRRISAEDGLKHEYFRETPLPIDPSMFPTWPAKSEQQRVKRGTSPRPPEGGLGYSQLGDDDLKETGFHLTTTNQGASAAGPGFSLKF

For `CC1=C(C#N)C(c2ccc3c(c2)c(NC(=O)c2ccccc2C)nn3C)C(C#N)=C(C)N1` [BAY-974], the IC50 in experiment [1] was > 20 µM (not active). The residual activity in experiment [2] is 100%; in experiment [3], 73%; in experiment [4], 98%; in experiment [5], 100%; in [6], 88%; in [7], 84%. The residual activity in [8] is 100%; in experiment [9], 100%; in [10], 100%; in experiment [11], 81%; in experiment [12] it was 78%; in experiment [13], 100%. For the same compound, the residual activity was 100% in [14]; 61% in [15]; 91% in [16]; 99% in experiment [17]; 83% in experiment [18]; 89% in [19]. Also, the results for the residual activity in experiment [20], in [21] and in [22] were 89%, 100% and 75%, respectively. For the same compound, the inhibition in experiment [23] was 14.4%.
For the compound `CCc1ccccc1C(=O)Nc1n[nH]c2c(C)c(F)c(C3C(C#N)=C(C)N(C)C(C)=C3C#N)cc12` [BAY-3827], in [1], the half-maximal inhibitory concentration (IC50) was 0.0014 µM (active). The residual activity in [2] was 95%; in [3], 99%; in experiment [4] it was 76%; in experiment [5] it was 100%; in [6] it was 71%; in experiment [7] it was 85%. The residual activity is 81% in [8]; 100% in [9]; 100% in [10]; 100% in experiment [11]; 100% in [12]; 98% in experiment [13]. For the same compound, the residual activity is 75% in [14]; 95% in experiment [15]; 54% in experiment [16]; 100% in experiment [17]; 92% in experiment [18]; 100% in experiment [19]. The residual activity in [20] was 89%; in experiment [21] it was 100%; in experiment [22], 100%. In experiment [23], the inhibition is 5.01%.

The IC50 is the point on the concentration scale where inhibition reaches its midpoint. For orientation: residual activity means what remains of the control signal, in per cent. The inhibition is the drop in the measured response relative to a control, in per cent.
